Source: patent US6353025B1, “Phenylaminoalkylcarboxylic acid derivatives and pharmaceutical compositions comprising the same” (Kissei Pharmaceutical Co., Ltd., priority 1997, dated 2002)
Counter-ions that a name gives are not always drawn. Like-named read-outs stand apart in the source and are kept apart here.

What was measured:
[1] = target: T1, β1-adrenoceptor (Rattus norvegicus, UniProt P18090); experiment: β1-adrenoceptor stimulating effects: increase of heart rate in isolated rat atria (Magnus method); set-up: species or system SD rats
T1 construct: Atria of male SD rats (250 to 400 g in body weight) were isolated; from tissue; host or cells: isolated rat atria
Experimental: The experiment for measuring β1-adrenoceptor stimulating effects
Atria of male SD rats (250 to 400 g in body weight) were isolated and the experiment was conducted according to the Magnus method. The preparations with a tension of 0.5 g were exposed to Krebs-Henseleit solution maintained at 37° C. and gassed with a mixture of 95% oxygen and 5% carbon dioxide. The cardiac contractility was measured isometrically with a force-displacement transducer, and heart rate was recorded on a rectigram via a tachometer, and the drug was added cumulatively.

[2] = target: T2, β2-adrenoceptor (Rattus norvegicus, UniProt P10608); experiment: β2-adrenoceptor stimulating effects: inhibition of spontaneous contraction of isolated pregnant rat uterus (Magnus method); settings: isolated uterine muscle strips of pregnant SD rats (pregnancy day 21)
T2 construct: Uteri of pregnant SD rats (pregnancy day 21) were isolated and longitudinal uterine muscle strips; from tissue; host or cells: longitudinal uterine muscle strips of pregnant SD rats
Experimental: The experiment for measuring β2-adrenoceptor stimulating effects
Uteri of pregnant SD rats (pregnancy day 21) were isolated and longitudinal uterine muscle strips of approximately 15 mm in length and approximately 5 mm in width free from the basal plate were prepared. The experiment was conducted according to the Magnus method. The preparations with a tension of 0.5 g were exposed to Locke-Ringer solution maintained at 37° C. and gassed with a mixture of 95% oxygen and 5% carbon dioxide. Spontaneous contractions of myometrium were measured isometrically with a force-displacement transducer and recorded on a rectigram. The drug was added cumulatively to the Magnus bath every 5 minutes.

[3] = target: β3-adrenoceptor (Mustela putorius furo, UniProt M3YEU4); experiment: β3-adrenoceptor stimulating effects: relaxation of isolated ferret urinary bladder smooth muscle strips (Magnus method); settings: read-out: EC50 (molar concentration producing 50% relaxation of urinary bladder smooth muscle); isolated male ferret urinary bladder strips; 0% = maximal relaxation after 10^−5 M forskolin
Experimental: The experiment for measuring β3-adrenoceptor stimulating effects
Urinary bladders of male ferrets (1100 to 1400 g in body weight) were isolated and urinary bladder smooth muscle strips of approximately 10 mm in length and approximately 2 mm in width were prepared. The experiment was conducted according to the Magnus method. The preparations with a tension of 1 g were exposed to Krebs-Henseleit solution maintained at 37° C. and gassed with a mixture of 95% oxygen and 5% carbon dioxide. Basal tensions of urinary bladder were measured isometrically with a force-displacement transducer and recorded on a rectigram. The drug was added cumulatively to the Magnus bath every 5 minutes. […] In this experiment, tension of urinary bladder smooth muscle before the addition of the drug was expressed as 100% and tension of maximal relaxation after the addition of 10^−5 molar concentration of forskolin was expressed as 0%.

[4] = test system: male ICR rats; experiment: Acute toxicity test; type: in vivo; settings: male ICR rats of 4 weeks age, intravenously, 250 mg/kg, during 24 hours after the administration
Experimental: To male ICR rats of 4 weeks age was administered intravenously N-[2,6-dichloro-4-[2-[[(1S, 2R)-2-hydroxy-2-(4-hydroxyphenyl)-1-methylethyl]amino]ethyl]phenyl]aminoacetic acid at a dose of 250 mg/kg.

T2 sequence (P10608 whole entry): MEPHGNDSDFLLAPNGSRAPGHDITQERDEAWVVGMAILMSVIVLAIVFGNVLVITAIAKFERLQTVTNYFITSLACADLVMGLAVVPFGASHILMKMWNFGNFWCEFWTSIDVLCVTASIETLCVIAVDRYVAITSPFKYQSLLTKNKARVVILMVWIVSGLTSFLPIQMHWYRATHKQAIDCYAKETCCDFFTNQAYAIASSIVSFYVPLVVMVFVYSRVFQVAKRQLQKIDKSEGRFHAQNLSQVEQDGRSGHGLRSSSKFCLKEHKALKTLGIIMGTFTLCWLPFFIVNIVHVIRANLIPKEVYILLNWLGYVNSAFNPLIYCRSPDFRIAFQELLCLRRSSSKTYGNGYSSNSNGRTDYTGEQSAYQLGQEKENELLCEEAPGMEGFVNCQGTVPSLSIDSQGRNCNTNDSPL
T1 sequence (P18090 whole entry): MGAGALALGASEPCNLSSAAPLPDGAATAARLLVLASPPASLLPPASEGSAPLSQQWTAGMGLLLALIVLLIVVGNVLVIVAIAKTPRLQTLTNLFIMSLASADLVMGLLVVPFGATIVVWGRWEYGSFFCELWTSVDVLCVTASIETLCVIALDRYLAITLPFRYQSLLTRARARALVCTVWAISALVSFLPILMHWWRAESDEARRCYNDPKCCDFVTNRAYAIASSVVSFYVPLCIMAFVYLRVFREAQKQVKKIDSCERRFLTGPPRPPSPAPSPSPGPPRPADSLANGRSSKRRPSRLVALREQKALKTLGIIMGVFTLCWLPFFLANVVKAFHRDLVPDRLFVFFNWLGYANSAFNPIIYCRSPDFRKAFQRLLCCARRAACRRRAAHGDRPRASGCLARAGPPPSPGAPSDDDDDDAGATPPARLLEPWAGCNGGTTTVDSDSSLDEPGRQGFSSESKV
β3-adrenoceptor, sequence (M3YEU4 entry or part of it): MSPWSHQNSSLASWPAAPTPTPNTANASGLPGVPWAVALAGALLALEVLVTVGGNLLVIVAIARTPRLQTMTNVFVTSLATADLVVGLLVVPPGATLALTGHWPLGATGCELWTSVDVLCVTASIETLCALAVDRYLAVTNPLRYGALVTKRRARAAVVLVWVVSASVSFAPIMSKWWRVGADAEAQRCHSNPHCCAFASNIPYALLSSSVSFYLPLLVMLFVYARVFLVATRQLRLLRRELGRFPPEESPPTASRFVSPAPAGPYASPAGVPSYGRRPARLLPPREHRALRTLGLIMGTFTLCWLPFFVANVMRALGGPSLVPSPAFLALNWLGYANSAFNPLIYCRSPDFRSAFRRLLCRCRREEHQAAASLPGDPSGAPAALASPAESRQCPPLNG

Which EC50 [1] does the source give for `C[C@H](NCCc1ccc(NCC(=O)O)c(Cl)c1)[C@H](O)c1ccc(O)cc1` [Compound 20, N-[2-Chloro-4-[2-[[(1S, 2R)-2-hydroxy-2-(4-hydroxyphenyl)-1-methylethyl]amino]ethyl]phenyl]aminoacetic acid] here?
The EC50 was 23000 nM.

And the EC50 [2]?
Its EC50 is 3300 nM.

Which EC50 [1] does the source give for `C[C@H](NCCc1cc(Cl)c(NCC(=O)N2CCOCC2)c(Cl)c1)[C@H](O)c1ccc(O)cc1` [Compound 32, 4-[2-[[2,6-Dichloro-4-[2-[[(1S, 2R)-2-hydroxy-2-(4-hydroxy-phenyl)-1-methylethyl]amino]ethyl]phenyl]amino]acetyl]morpholine] here?
The EC50 was > 100000 nM.

And the EC50 [2]?
Its EC50 is 1700 nM.

For `CCOC(=O)CNc1c(Cl)cc(CCN[C@@H](C)[C@H](O)c2ccc(O)cc2)cc1Cl` [Compound 2, Ethyl N-[2,6-dichloro-4-[2-[[(1S, 2R)-2-hydroxy-2-(4-hydroxy-phenyl)-1-methylethyl]amino]ethyl]phenyl]aminoacetate hydrochloride], which EC50 [1] is on record?
The EC50 was 50 nM.

And the EC50 [2]?
Its EC50 is 650 nM.

Which EC50 [3] does the source give for `C[C@H](Cc1ccc(OCC(=O)O)cc1)NC[C@H](O)c1cccc(Cl)c1` [BRL-37344, reference compound] here?
The EC50 was 1.6 nM.

And the EC50 ([1]; read-out: EC50 (molar concentration producing 50% increase of heart rate per minute), isolated male SD rat atria, 100% = increase after 10^−8 M isoproterenol)?
The EC50 was 270 nM.

And the EC50 ([2]; read-out: EC50 (molar concentration producing 50% inhibition of uterine contraction))?
Its EC50 is 9 nM.

With `C[C@H](NCCc1ccc(N(C)CC(=O)O)cc1)[C@H](O)c1ccc(O)cc1` [Compound 21, N-[4-[2-[[(1S, 2R)-2-Hydroxy-2-(4-hydroxyphenyl)-1-methylethyl]-amino]ethyl]phenyl]-N-methylaminoacetic acid] as the compound, how does the EC50 [1] read?
Its EC50 is 34000 nM.

What about the EC50 [2] of the same compound?
Its EC50 is 1600 nM.

`C[C@H](NCCc1cc(Br)c(NCC(=O)O)c(Br)c1)[C@H](O)c1ccc(O)cc1` [Compound 29, N-[2,6-Dibromo-4-[2-[[(1S, 2R)-2-hydroxy-2-(4-hydroxyphenyl)-1-methylethyl]amino]ethyl]phenyl]aminoacetic acid] was tested. Which EC50 [1] did it give?
Its EC50 is > 100000 nM.

For `C[C@H](NCCc1ccc(NCC(=O)O)cc1)[C@H](O)c1ccc(O)cc1` [Compound 18, N-[4-[2-[[(1S, 2R)-2-hydroxy-2-(4-hydroxyphenyl)-1-methylethyl]-amino]ethyl]phenyl]aminoacetic acid], which EC50 [1] is on record?
Its EC50 is 83 nM.

And the EC50 [2]?
The EC50 was 650 nM.

For `C[C@H](NCCc1cc(Cl)c(NCC(=O)O)c(Cl)c1)[C@H](O)c1ccc(O)cc1` [Compound 17, N-[2,6-Dichloro-4-[2-[[(1S, 2R)-2-hydroxy-2-(4-hydroxyphenyl)-1-methylethyl]amino]ethyl]phenyl]aminoacetic acid], which EC50 [1] is on record?
The EC50 was > 100000 nM.

What about the “Death of animals (acute toxicity)” value [4] of the same compound?
The value was “No death of animals was observed”.

And the EC50 [2]?
Its EC50 is 14000 nM.

`C[C@H](NCCc1cc(Cl)c(NCC(=O)N(C)C)c(Cl)c1)[C@H](O)c1ccc(O)cc1` [Compound 16, 2-[[2,6-Dichloro-4-[2-[[(1S, 2R)-2-hydroxy-2-(4-hydroxyphenyl)-1-methylethyl]amino]ethyl]phenyl]amino]-N, N-dimethylacetamide hydrochloride] was tested. Which EC50 [1] did it give?
Its EC50 is > 100000 nM.
